In patent publication US11572373B2, “Maytansinoid-based drug delivery systems” (LADRX CORPORATION, priority 2017, dated 2023):
Marks after values point to notes of the source that are not given here.

Assay: Stability and release kinetics of maytansinoid-HSA conjugates in buffer solution at pH 4.0 and pH 7.4
Type: physicochemical
Conditions: maytansinoid-HSA conjugate, PBS pH 7.4, 37° C.
Experimental: For preparing HSA conjugates of albumin-binding maytansinoids, HSA (200 μM: 361.8 μL, 1078 μM free Cys34; 100 μM: 180.9 μL, 1078 μM free Cys34) was diluted with PBS buffer (4 mM sodium phosphate, 150 mM NaCl, pH 7.4) (200 μM: 678.2 μL; 100 μM: 859.1 μL) and DMSO (200 μM: 130.0 μL; 100 μM: 195.0 μL) and incubated in a heating block at 37° C. for 30 minutes. The albumin-binding maytansinoid was added as a 2 mM stock solution in DMSO (200 μM: 130.0 μL; 100 μM: 65.0 μL) to the preincubated HSA sample to produce a 200 μM or 100 μM solution of maytansinoid-prodrug and 300 μM or 150 μM of free Cys34. The mixture having a pH of 7.4 was allowed to react for 10 min at 37° C. and was then analyzed hourly for 24 hours by RP-HPLC (Phenomenex Aeris WP XB-C18, 3.6 μm, 250×4.6 mm).
For studying the release kinetics at pH 4.0 the mixture was acidified with a mixture of 50 mM sodium acetate buffer pH 3.0 (200 μM: 119.3 μL; 100 μM: 125.2 μL) and 1 M HCl (200 μM: 12.7 μL; 100 μM: 6.8 μL) to reach pH 4.0. The mixture was subsequently analyzed hourly for 24 hours by RP-HPLC (Phenomenex Aeris WP XB-C18, 3.6 μm, 250×4.6 mm).
The following RP-HPLC conditions were used: Phenomenex Aeris WP XB-C18 3.6 μm, 250×4.6 mm; eluent A (100% 20 mM Tris buffer pH 8.0) and eluent B (90:10, MeCN: water) eluting with a gradient of eluent B (25% 0-0.5 min, 25-35% 0.5-2.5 min, 35-85% 2.5-16 min, 85-95% 16-17 min, 95% 17-20 min, 95-25% 20-25 min, 25% 25-30 min, flow rate 1.0 mL/min). Column oven temperature 37° C.; autosampler temperature 37° C.; 20 μL of injection volume.
To quantify the percentage of free drug released, standard curves of the free maytansinoids were prepared at different concentrations (200 μM, 100 μM, 50 μM, 25 μM and 12.5 μM). The area under the curve (AUC) was determined at 250 nm.

SMILES: COc1cc2cc(c1Cl)N(C)C(=O)C[C@H](OC(=O)COc1cccc(/C(C)=N/NC(=O)c3ccc(NC(=O)CCCCCN4C(=O)C=CC4=O)cc3S(=O)(=O)O)c1)[C@]1(C)O[C@H]1[C@H](C)[C@@H]1C[C@@](O)(NC(=O)O1)[C@H](OC)/C=C/C=C(\C)C2 [Compound 31]
- free maytansinoid after 24 h at pH 7.4 (measured at 100 μM): 3.7%**
- free maytansinoid after 24 h at pH 7.4 (measured at 200 μM): 4.0%*
